Source: ChEMBL document CHEMBL5143636, “Design, synthesis and structure-activity relationship studies of pyrido[2,3-d]pyrimidin-7-ones as potent Janus Kinase 3 (JAK3) covalent inhibitors” (Bioorg Med Chem Lett, 2022)
Each block holds one molecule with its values, some of them ahead of it. Calls of active or inactive are those of the source. The rule behind the calls is not given here.

Experiments:
[1] = target: T1, Tyrosine-protein kinase JAK3 (Homo sapiens, UniProt P52333)
T1 sequence (P52333 whole entry): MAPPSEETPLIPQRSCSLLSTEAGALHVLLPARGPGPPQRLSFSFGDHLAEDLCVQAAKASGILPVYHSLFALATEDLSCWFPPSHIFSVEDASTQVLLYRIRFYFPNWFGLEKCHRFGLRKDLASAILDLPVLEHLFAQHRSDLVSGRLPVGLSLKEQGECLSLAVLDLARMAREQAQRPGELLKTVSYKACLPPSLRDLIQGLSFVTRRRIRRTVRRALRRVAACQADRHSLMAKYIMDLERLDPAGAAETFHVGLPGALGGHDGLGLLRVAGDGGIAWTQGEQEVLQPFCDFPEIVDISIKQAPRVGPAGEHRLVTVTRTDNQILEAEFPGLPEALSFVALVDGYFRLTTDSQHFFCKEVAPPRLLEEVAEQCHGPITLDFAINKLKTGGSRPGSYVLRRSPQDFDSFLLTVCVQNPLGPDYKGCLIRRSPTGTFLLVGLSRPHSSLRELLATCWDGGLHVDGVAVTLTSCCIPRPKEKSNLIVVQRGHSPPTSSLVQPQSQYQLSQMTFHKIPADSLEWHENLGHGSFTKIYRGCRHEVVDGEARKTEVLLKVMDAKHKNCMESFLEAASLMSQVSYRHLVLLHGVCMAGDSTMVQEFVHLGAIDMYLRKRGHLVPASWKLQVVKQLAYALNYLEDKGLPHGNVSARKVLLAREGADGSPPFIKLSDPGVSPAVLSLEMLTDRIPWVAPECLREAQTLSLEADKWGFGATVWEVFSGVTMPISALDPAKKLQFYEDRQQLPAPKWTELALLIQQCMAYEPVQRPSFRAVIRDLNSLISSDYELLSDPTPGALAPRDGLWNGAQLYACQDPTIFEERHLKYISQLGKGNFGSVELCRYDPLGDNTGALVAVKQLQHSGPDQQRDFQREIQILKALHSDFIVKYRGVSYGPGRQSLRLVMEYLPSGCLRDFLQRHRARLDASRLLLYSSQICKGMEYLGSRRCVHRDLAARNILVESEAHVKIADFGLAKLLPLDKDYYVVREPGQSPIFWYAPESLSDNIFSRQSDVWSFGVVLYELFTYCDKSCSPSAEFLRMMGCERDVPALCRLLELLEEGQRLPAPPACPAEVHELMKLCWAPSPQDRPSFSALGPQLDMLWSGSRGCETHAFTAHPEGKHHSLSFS
Description: Covalent inhibition of recombinant recombinant human GST-tagged JAK3(781 to 1124 residues) expressed in baculovirus expression system incubated for 1 hr in the presence of ATP by FRET based Z'-LYTE assay

[2] = test system: U-937; assay: Antiproliferative activity against human U-937 cells harbouring JAK3 M511 mutation assessed as reduction in cell viability incubated for 72 hrs by CCK-8 assay; format: functional, cell-based; conditions: U-937, 72 h
[3] = target: T1, Tyrosine-protein kinase JAK3; assay: Inhibition of JAK3 (unknown origin) incubated for 1 hr in the presence of ATP by FRET based Z'-LYTE assay
[4] = target: Tyrosine-protein kinase JAK1 (Homo sapiens, UniProt P23458); assay: Inhibition of JAK1 (unknown origin) incubated for 1 hr in the presence of ATP by FRET based Z'-LYTE assay
[5] = target: Tyrosine-protein kinase JAK2 (Homo sapiens, UniProt O60674); assay: Inhibition of JAK2 (unknown origin) incubated for 1 hr in the presence of ATP by FRET based Z'-LYTE assay
Chain of Tyrosine-protein kinase JAK2 (O60674 whole entry): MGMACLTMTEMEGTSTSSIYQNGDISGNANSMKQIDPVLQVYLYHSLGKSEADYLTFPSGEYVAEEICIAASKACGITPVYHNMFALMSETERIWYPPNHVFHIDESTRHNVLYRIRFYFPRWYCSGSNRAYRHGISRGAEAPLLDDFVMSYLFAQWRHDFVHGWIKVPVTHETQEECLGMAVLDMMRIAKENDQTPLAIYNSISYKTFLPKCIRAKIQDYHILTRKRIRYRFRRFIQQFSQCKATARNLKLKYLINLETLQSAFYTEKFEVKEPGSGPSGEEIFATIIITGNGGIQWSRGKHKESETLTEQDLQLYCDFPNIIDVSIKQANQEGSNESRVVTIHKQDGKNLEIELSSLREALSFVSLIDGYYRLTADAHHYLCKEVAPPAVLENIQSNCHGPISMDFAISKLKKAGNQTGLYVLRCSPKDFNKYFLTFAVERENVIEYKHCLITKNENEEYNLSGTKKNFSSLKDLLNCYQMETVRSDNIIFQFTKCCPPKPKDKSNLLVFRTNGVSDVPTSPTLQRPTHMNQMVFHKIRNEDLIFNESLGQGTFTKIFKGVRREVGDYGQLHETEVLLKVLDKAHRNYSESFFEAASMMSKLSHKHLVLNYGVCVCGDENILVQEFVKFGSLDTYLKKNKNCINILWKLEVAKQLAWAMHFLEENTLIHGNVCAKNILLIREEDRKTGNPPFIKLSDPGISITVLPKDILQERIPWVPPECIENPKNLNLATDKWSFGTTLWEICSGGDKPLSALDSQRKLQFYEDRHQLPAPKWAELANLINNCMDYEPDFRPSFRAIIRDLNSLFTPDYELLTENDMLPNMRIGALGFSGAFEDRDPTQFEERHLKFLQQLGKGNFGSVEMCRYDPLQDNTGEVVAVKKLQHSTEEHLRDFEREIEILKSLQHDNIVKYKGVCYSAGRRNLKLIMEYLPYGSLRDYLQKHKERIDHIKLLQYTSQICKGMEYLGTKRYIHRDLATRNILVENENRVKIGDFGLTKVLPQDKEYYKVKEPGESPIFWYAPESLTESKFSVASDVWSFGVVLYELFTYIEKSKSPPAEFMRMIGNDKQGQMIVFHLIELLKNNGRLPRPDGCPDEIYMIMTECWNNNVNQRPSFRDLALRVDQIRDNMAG

[6] = target: Non-receptor tyrosine-protein kinase TYK2 (Homo sapiens, UniProt P29597); assay: Inhibition of TYK2 (unknown origin) incubated for 1 hr in the presence of ATP by FRET based Z'-LYTE assay
Chain of Non-receptor tyrosine-protein kinase TYK2 (P29597 whole entry): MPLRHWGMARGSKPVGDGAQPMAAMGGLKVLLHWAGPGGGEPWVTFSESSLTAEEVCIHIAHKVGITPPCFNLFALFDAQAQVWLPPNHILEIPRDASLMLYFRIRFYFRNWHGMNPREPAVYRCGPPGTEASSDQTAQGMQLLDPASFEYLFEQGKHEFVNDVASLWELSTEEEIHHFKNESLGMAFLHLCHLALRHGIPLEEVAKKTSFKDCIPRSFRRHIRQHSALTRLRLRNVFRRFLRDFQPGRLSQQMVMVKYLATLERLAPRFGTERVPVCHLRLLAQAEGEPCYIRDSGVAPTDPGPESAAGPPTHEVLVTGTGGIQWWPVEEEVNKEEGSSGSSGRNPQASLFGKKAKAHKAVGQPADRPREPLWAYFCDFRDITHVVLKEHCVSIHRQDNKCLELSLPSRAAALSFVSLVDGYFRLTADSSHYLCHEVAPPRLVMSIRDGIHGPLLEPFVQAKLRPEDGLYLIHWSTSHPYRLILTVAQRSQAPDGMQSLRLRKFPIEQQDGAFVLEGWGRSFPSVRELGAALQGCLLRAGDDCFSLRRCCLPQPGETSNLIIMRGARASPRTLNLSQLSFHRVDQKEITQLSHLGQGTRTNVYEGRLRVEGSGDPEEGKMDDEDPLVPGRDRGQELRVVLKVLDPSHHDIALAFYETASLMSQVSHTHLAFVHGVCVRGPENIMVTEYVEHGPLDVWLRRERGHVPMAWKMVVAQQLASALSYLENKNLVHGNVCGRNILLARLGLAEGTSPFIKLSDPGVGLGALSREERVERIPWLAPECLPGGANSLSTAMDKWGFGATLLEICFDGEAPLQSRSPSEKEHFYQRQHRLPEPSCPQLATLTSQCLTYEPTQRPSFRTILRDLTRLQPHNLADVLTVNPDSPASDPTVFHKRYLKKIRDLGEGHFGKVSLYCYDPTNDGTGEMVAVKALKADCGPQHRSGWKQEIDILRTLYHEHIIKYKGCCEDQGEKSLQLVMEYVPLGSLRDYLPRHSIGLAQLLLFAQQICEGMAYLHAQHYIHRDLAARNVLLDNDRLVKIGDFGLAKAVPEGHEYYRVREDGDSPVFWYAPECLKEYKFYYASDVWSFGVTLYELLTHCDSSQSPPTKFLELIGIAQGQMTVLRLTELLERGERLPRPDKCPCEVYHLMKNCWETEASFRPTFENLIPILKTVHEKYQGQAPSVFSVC

[7] = target: Tyrosine-protein kinase BTK (Homo sapiens, UniProt Q06187); assay: Inhibition of BTK (unknown origin) incubated for 1 hr in the presence of ATP by FRET based Z'-LYTE assay
[8] = target: Epidermal growth factor receptor (Homo sapiens, UniProt P00533); assay: Inhibition of wild type EGFR (unknown origin) incubated for 1 hr in the presence of ATP by FRET based Z'-LYTE assay
Chain of Epidermal growth factor receptor (Homo sapiens, UniProt P00533) (P00533 whole entry): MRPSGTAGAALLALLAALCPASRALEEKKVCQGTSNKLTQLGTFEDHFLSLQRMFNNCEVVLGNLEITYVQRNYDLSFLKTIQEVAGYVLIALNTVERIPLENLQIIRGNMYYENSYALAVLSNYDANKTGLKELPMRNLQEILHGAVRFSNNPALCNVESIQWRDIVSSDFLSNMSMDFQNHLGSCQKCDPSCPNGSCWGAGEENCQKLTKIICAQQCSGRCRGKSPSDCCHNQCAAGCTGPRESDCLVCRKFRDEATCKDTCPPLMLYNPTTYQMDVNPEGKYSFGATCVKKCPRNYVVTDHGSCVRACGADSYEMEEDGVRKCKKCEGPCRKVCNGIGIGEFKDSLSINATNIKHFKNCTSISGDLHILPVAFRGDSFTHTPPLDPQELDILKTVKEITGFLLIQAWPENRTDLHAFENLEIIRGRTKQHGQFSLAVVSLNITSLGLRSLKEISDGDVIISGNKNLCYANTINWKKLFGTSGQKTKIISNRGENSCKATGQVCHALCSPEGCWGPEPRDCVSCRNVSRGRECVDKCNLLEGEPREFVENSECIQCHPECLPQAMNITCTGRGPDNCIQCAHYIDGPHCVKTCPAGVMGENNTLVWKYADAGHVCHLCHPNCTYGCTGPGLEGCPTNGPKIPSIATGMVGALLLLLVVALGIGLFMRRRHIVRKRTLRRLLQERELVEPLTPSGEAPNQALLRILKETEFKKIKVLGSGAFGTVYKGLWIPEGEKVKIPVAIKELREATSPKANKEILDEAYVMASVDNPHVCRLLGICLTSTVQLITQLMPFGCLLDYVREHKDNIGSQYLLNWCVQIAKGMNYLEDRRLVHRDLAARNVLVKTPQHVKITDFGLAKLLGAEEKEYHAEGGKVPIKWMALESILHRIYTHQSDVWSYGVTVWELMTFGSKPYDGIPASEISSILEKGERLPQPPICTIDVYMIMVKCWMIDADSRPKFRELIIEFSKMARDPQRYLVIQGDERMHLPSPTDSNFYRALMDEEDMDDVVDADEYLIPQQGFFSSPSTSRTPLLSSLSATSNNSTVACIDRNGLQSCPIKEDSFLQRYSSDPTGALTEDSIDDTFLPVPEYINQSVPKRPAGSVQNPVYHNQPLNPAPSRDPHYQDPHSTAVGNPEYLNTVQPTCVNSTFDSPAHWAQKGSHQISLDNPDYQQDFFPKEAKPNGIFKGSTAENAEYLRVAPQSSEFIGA

[9] = target: Epidermal growth factor receptor (Homo sapiens, UniProt P00533, T790M); assay: Inhibition of EGFR T790M mutant (unknown origin) incubated for 1 hr in the presence of ATP by FRET based Z'-LYTE assay
Chain of Epidermal growth factor receptor (Homo sapiens, UniProt P00533, T790M) (P00533 25-1210 T790M limits assumed): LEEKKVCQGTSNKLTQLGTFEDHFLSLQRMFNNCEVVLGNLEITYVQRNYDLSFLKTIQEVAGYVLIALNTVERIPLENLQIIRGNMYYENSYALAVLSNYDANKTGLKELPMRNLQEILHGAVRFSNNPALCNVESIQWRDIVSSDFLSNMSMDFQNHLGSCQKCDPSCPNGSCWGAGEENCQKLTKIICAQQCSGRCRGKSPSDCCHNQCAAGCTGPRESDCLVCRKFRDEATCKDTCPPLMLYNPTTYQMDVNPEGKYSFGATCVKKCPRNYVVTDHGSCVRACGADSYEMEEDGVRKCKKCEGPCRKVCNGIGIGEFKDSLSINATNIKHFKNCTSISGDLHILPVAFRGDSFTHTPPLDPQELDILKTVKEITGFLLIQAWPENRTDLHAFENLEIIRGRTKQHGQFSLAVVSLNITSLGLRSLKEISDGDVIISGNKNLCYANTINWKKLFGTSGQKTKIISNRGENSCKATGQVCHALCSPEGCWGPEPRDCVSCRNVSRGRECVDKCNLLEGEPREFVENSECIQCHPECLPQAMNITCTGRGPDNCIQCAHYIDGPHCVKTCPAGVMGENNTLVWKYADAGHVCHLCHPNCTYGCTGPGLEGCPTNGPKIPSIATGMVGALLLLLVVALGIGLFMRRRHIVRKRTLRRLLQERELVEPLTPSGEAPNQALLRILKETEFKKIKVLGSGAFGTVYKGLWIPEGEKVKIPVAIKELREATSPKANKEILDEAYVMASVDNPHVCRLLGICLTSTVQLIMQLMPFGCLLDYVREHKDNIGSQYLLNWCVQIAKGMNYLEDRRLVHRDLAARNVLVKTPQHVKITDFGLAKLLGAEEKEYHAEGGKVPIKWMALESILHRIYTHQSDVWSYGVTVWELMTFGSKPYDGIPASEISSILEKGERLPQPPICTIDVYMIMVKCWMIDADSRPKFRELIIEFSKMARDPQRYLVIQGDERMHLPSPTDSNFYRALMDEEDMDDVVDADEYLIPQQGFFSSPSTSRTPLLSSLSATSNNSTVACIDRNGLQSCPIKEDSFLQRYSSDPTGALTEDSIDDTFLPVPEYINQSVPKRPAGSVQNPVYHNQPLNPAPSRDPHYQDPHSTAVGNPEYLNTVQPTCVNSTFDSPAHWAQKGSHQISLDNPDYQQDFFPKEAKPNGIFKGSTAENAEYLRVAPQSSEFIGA

[10] = Selectivity ratio of IC50 for inhibition of BTK (unknown origin) to IC50 for covalent inhibition of recombinant human GST-tagged JAK3 (781 to 1124 residues) expressed in baculovirus expression system
[11] = Selectivity ratio of IC50 for inhibition of wild type EGFR (unknown origin) to IC50 for covalent inhibition of recombinant human GST-tagged JAK3 (781 to 1124 residues) expressed in baculovirus expression system
[12] = Selectivity ratio of IC50 for inhibition of EGFR T790M mutant (unknown origin) to IC50 for covalent inhibition of recombinant human GST-tagged JAK3 (781 to 1124 residues) expressed in baculovirus expression system
[13] = test system: Jurkat; assay: Antiproliferative activity against human Jurkat cells assessed as reduction in cell viability incubated for 72 hrs by CCK-8 assay; format: functional, cell-based
[14] = test system: COLO 205; assay: Antiproliferative activity against human COLO 205 cells assessed as reduction in cell viability incubated for 72 hrs by CCK-8 assay; format: functional, cell-based; conditions: COLO 205, 72 h
[15] = test system: OCI-Ly3; assay: Antiproliferative activity against human OCILY3 cells assessed as reduction in cell viability incubated for 72 hrs by CCK-8 assay; format: functional, cell-based; conditions: OCI-Ly3, 72 h
[16] = test system: HCT-116; assay: Antiproliferative activity against human HCT-116 cells assessed as reduction in cell viability incubated for 72 hrs by CCK-8 assay; format: functional, cell-based; conditions: HCT-116, 72 h
[17] = test system: NCI-H1299; assay: Antiproliferative activity against human NCI-H1299 cells assessed as reduction in cell viability incubated for 72 hrs by CCK-8 assay; format: functional, cell-based; conditions: NCI-H1299, 72 h
[18] = test system: MOLT-4; assay: Antiproliferative activity against human MOLT-4 cells assessed as reduction in cell viability incubated for 72 hrs by CCK-8 assay; format: functional, cell-based; conditions: MOLT-4, 72 h
[19] = test system: MDA-MB-231; assay: Antiproliferative activity against human MDA-MB-231 cells assessed as reduction in cell viability incubated for 72 hrs by CCK-8 assay; format: functional, cell-based; conditions: MDA-MB-231, 72 h
[20] = test system: Daudi; assay: Antiproliferative activity against human Daudi cells assessed as reduction in cell viability incubated for 72 hrs by CCK-8 assay; format: functional, cell-based
[21] = target: T2, Tyrosine-protein kinase JAK3 (Homo sapiens) (UniProt P52333); assay: Inhibition of JAK3 phosphorylation in human U-937 cells measured after 12 hrs by Western blotting analysis; format: cell-based; conditions: dose 12.5-200 nM, DDE = dose-dependent effect
T2 sequence (whole entry): T1 sequence (P52333 whole entry)

[22] = target: T3, Signal transducer and activator of transcription 5A (Homo sapiens) (UniProt P42229); assay: Inhibition STAT5 phosphorylation in human U-937 cells measured after 12 hrs by Western blotting analysis; format: cell-based; conditions: dose 12.5-200 nM, DDE = dose-dependent effect
T3 sequence (whole entry): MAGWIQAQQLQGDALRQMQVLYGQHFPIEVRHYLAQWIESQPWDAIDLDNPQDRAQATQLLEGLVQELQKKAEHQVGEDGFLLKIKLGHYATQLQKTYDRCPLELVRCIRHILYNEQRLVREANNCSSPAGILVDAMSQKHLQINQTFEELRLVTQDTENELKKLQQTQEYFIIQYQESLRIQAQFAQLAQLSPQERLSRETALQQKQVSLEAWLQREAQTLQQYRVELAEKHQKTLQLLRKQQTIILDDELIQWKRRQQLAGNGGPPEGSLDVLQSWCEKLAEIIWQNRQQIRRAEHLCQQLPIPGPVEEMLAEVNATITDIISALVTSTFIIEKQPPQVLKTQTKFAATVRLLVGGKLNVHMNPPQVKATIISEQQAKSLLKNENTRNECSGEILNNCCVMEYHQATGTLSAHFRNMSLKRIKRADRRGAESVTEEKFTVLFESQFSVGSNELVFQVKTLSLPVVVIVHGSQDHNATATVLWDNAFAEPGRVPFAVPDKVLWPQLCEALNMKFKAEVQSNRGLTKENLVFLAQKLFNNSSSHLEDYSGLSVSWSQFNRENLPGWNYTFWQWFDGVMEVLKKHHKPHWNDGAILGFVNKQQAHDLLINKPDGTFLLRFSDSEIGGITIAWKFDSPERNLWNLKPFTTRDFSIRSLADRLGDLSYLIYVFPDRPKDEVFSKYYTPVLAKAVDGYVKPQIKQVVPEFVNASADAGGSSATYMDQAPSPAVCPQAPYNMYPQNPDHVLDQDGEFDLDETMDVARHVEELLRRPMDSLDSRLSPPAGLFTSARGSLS

[23] = test system: U-937; assay: Effect on JAK3 protein level in human U-937 cells at 12.5 to 200 nM measured after 12 hrs by Western blotting analysis; format: functional, cell-based; conditions: dose 12.5-200 nM
[24] = test system: U-937; assay: Effect on STAT5 protein level in human U-937 cells at 12.5 to 200 nM measured after 12 hrs by Western blotting analysis; format: functional, cell-based; conditions: dose 12.5-200 nM
[25] = target: T2, Tyrosine-protein kinase JAK3 (Homo sapiens); assay: Inhibition of JAK3 phosphorylation in human U-937 cells at 200 nM preincubated for 6 hrs followed by compound washout and measured upto 24 hrs by Western blotting analysis; format: cell-based
[26] = target: T3, Signal transducer and activator of transcription 5A (Homo sapiens); assay: Inhibition of STAT5 phosphorylation in human U-937 cells at 200 nM preincubated for 6 hrs followed by compound washout and measured upto 24 hrs by Western blotting analysis; format: cell-based

SMILES: C=CC(=O)Nc1cccc(Cn2c(=O)ccc3cnc(Nc4ccc(N5CCN(C)CC5)cc4OC(C)C)nc32)c1
IC50 [1]: 1300 nM

SMILES: C=CC(=O)N1C[C@H](Nc2ncnc3[nH]ccc23)CC[C@@H]1C [RITLECITINIB]
IC50 [2]: 40 nM

SMILES: C=CC(=O)Nc1cccc(Cn2c(=O)cc(CC)c3cnc(Nc4ccc(N5CCN(C)CC5)cc4OC)nc32)c1
IC50 [1]: 20 nM

SMILES: C=CC(=O)Nc1cccc(Cn2c(=O)cc(C)c3cnc(Nc4ccc(N5CCN(C)CC5)cc4OC)nc32)c1
IC50 [1]: 18.2 nM

SMILES: C/C=C/C(=O)Nc1cccc(Cn2c(=O)ccc3cnc(Nc4ccccc4OC)nc32)c1
IC50 [1]: 4800 nM

SMILES: C=CC(=O)Nc1cccc(Cn2c(=O)cc(C3CC3)c3cnc(Nc4ccc(N5CCN(C)CC5)cc4OC)nc32)c1
IC50 [1]: 1450 nM

SMILES: C=CC(=O)Nc1cccc(-n2c(=O)cc(C)c3cnc(Nc4ccc(N5CCN(C)CC5)cc4OC)nc32)c1
IC50 [3]: 31.3 nM

SMILES: C=CC(=O)Nc1cccc(Cn2c(=O)ccc3cnc(Nc4ccc(N5CCN(C)CC5)cc4)nc32)c1
IC50 [1]: 2 nM | IC50 [4]: 2430 nM | IC50 [5]: 1130 nM | IC50 [6]: 8880 nM | IC50 [7]: 15.6 nM | IC50 [8]: 261 nM | IC50 [9]: 216 nM | Ratio IC50 [10]: 8 | Ratio IC50 [11]: > 100 | Ratio IC50 [12]: > 100 | IC50 [2]: 50 nM | IC50 [13]: 2280 nM | IC50 [14]: 3840 nM | IC50 [15]: 1530 nM | IC50 [16]: 3690 nM | IC50 [17]: 4780 nM | IC50 [18]: 2250 nM | IC50 [19]: 3030 nM | IC50 [20]: 2070 nM | inhibition [21]: Dde | inhibition [22]: Dde | Activity [23]: Active | Activity [24]: Active | inhibition [25]: Active | inhibition [26]: Active

SMILES: C=CC(=O)Nc1cccc(Cn2c(=O)cc(CCC)c3cnc(Nc4ccc(N5CCN(C)CC5)cc4OC)nc32)c1
IC50 [1]: > 10000 nM

SMILES: C=CC(=O)Nc1ccccc1Cn1c(=O)ccc2cnc(Nc3ccccc3OC)nc21
IC50 [1]: > 10000 nM

SMILES: CCC(=O)Nc1cccc(Cn2c(=O)ccc3cnc(Nc4ccccc4OC)nc32)c1
IC50 [1]: > 10000 nM

SMILES: C=CC(=O)Nc1ccc(Cn2c(=O)ccc3cnc(Nc4ccccc4OC)nc32)cc1
IC50 [1]: 72.1 nM

The remaining molecules from weak to strong by IC50 [1], led by results:

IC50 [1]: 9.8 nM | IC50 [2]: 1810 nM
SMILES: C=CC(=O)Nc1cccc(Cn2c(=O)ccc3cnc(Nc4ccc(N5CCN(C)CC5)cc4OCC)nc32)c1

IC50 [1]: 4.1 nM | IC50 [2]: 520 nM
SMILES: C=CC(=O)Nc1cccc(Cn2c(=O)ccc3cnc(Nc4ccc(C5CCN(C)CC5)cc4OC)nc32)c1

IC50 [1]: 3.3 nM | IC50 [2]: 430 nM
SMILES: C=CC(=O)Nc1cccc(Cn2c(=O)ccc3cnc(Nc4cnn(CCOC)c4)nc32)c1

IC50 [1]: 3.3 nM | IC50 [2]: 540 nM
SMILES: C=CC(=O)Nc1cccc(Cn2c(=O)ccc3cnc(Nc4ccc(N5CCN(C(C)=O)CC5)cc4OC)nc32)c1

IC50 [1]: 3.1 nM | IC50 [2]: 520 nM
SMILES: C=CC(=O)Nc1cccc(Cn2c(=O)ccc3cnc(Nc4ccc(N(C)CCN(C)C)cc4OC)nc32)c1

IC50 [1]: 3 nM | IC50 [2]: 2020 nM
SMILES: C=CC(=O)Nc1cccc(Cn2c(=O)ccc3cnc(Nc4ccccc4OC)nc32)c1

IC50 [1]: 2 nM | IC50 [2]: 70 nM
SMILES: C=CC(=O)Nc1cccc(Cn2c(=O)ccc3cnc(Nc4cnn(C5CCN(C)CC5)c4)nc32)c1

IC50 [1]: 1.8 nM | IC50 [2]: 220 nM
SMILES: C=CC(=O)Nc1cccc(Cn2c(=O)ccc3cnc(Nc4cnn(C)c4)nc32)c1

IC50 [1]: 1.7 nM | IC50 [2]: 470 nM
SMILES: C=CC(=O)Nc1cccc(Cn2c(=O)ccc3cnc(Nc4cnn(CCO)c4)nc32)c1

IC50 [1]: 1.6 nM | IC50 [2]: 470 nM
SMILES: C=CC(=O)Nc1cccc(Cn2c(=O)ccc3cnc(Nc4ccc(N5CCN(C)CC5)cc4OC)nc32)c1
